For one assay, the system named is mouse Tc17 cells. In words: Mouse Th17/Tc17 differentiation dose-response (flow cytometry). It counts as cell-based. The settings on record: for EC50: Mus musculus. (Flow cytometry measures light scatter and fluorescence of single cells or particles in a stream.)
The subject of the next assay is macrophages. The experiment in a line: Macrophage markers by qPCR. The assay is classed as cell-based. The settings on record: compared with vehicle. The protocol: The intracellular cytokines by TILs or in vitro differentiated T helper cells were quantified after restimulation with PMA plus ionomycin in the presence of GolgiStop for 6 h. The total RNA was isolated using the improved TRizol-based (Sigma, Darmstadt, Germany) method for qPCR analysis, and the mRNA expression was analyzed using a StepOnePlus (Life Technologies, Carlsbad, USA) real-time PCR instrument using housekeeping gene β-actin and Gapdh internal standards. qPCR was performed using A Power SYBR Green PCR Master Mix (Accurate Biology, Hunan, China) and two-cycle amplification for 40 cycles followed by the melting curve. The sequence of primers is listed in the Additional file 6: Table S1. In addition, the cytokines were quantified in cell-free culture supernatants using enzymelinked immunosorbent assay (ELISA) kit (the optical density (OD) value was measured at 450 nm, using 570 nm or 630 nm as the reference wavelengths, Multisciences, Hangzhou, China). The kit was used according to the manufacturer’s instructions.
To confirm the in vitro specificity of 8-074, splenocytes from C57BL/6 wild-type mice were activated by plate-bound anti-CD3 and anti-CD28 antibodies and polarized with anti-IL-4 and IL-12 to obtain Th1 cells. IFN-γ, a signature cytokine of Th1 cells, was not affected by LYC-55716 or 8-074 compared with vehicle alone (Fig. 2j, Fig. S2g).

The next assay deals with T1, RORγt LBD protein (Homo sapiens, UniProt P51449).
T1 construct: RORγt (residues 263–509)-GGG-SRC1; GGG linker + SRC1 peptide (C); His-tag (inferred from pET28a and nickel purification); made in house; host or cells: E. coli strain DE3, pET28a
T1 sequence (P51449 263-509): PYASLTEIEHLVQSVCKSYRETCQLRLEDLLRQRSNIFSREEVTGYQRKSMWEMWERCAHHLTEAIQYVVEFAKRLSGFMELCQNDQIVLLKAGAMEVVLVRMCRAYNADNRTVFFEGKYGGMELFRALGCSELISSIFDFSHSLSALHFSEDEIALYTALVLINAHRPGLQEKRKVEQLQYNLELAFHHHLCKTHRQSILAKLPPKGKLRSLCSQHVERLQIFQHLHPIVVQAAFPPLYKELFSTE
The experiment in a line: Biacore binding to RORγt LBD protein. The settings on record: RORγt protein immobilized on CM5 chip. The source says:
Human nuclear receptor RORγt (residues 263–509)-GGG-SRC1 (SRC1 sequence: EKHKILHRLLQDS, Sangon Biotech, Shanghai). RORγt LBD was cloned in pET28a. Key residue mutations of RORγt LBD (such as PHE388, LEU391, CYS393, LEU396, ILE397, ILE400, CYS320, ALA321, LEU324, MET358, and PHE388) with LYC-55716 were cloned in pET28a. Key residue mutations of RORγt LBD (MET365, ALA368, PHE401, ILE400, ILE397, LEU396, TRP317, CYS320, LEU324, ALA327, TYR330, VAL331, MET358, and VAL361) with 8-074 were cloned in pET28a. The proteins were expressed in E. coli strain DE3. Then, the transformed E. coli culture was grown at 37 °C with 30 μg/mL Kanamycin LB (Luria–Bertani). When the OD600 of LB medium reached 0.6, the temperature was changed to 16 °C, and isopropyl-β-D-thiogalactopyranoside (IPTG, Beyotime, Shanghai, China) was added at a final concentration of 0.4 mM to induce protein expression for 16 h. After 16 h, the pellet was collected after centrifugation at 4,000 rpm for 15 min at 4 °C. […]
The RORγt protein was immobilized on a CM5 chip (GE Health, Chicago, USA) using Biaocre 8 K. A sensogram was obtained using different serial concentrations of 8-074 (5000 nM, 2500 nM, 1250 nM, 625 nM, 312.5 nM, 156.25 nM, 78.125 nM, and 39.0625 nM). […] Data were analyzed using Biacore Evaluation Software.

Where [1] appears, read: fit of dose-response curve Fig. 1i.

Read-outs that look alike come from different tables or passages of the source.

For the molecule `CCS(=O)(=O)c1ccc(CC(=O)Nc2ccc(-c3ccc(CC(C)C)c(C#N)c3)c(C(F)(F)F)c2)cc1` [8-074], in the assay on mouse Tc17 cells (8-074 0.001 to 320 nM, Th17% by flow cytometry, read-out: EC50, stimulation of mouse Tc17 cells), the EC50 came out at 11.2 nM. The EC50 in the assay on mouse Tc17 cells (Fig. S2b summary, read-out: mTh17) turned out to be 11.2 nM. Besides, in the assay on mouse Tc17 cells (setting [1]), the HillSlope came to 1.006 and the Span amounted to 111.9. Besides, the “gene expression of macrophage markers Arg1, Il-1β, Il-6, and Il-10” value in the assay with macrophages is “no significant change”. At RORγt LBD protein, the affinity, expressed as Kd, was 497 nM.

The values above are taken from publication PMC9034499, “RORγt agonist enhances anti-PD-1 therapy by promoting monocyte-derived dendritic cells through CXCL10 in cancers” (Journal of Experimental & Clinical Cancer Research : CR, 2022).
